Consider nine compounds from US20020035100A1, “Alkyl ether modified polycyclic compounds having a terminal phenol and uses for protection of cells” (priority 2000, published 2002).

Entries after “also recorded” stand apart in the source; their conditions may differ.

For data set [1], the system named is HT-22 cells. The data set can be described thus: Cytoprotection of HT-22 cells against glutamate exposure (calcein AM cell viability). It counts as cell-based, Mouse. The settings on record: for cytoprotection (result in words): tested at 0.01-10 μM; for neuroprotection: at 10 μM and 1 μM; for activity compared with 4c and 4e: at 10 μM. The protocol:
Mouse clonal hippocampal HT-22 cells were cultured in DMEM media supplemented with 10% fetal bovine serum under standard cell culture conditions. All wells in the 96 well culture plate contained approximately 5,000 HT-22 cells as determined by a Neubauer hemacytometer and the cells were incubated for 24 hrs before the compounds were added. The estradiol derivatives were purified recrystallization or column chromatography and were free from (1) as determined by HPLC. All agents were dissolved in absolute ethanol and diluted, with the culture media, to a final concentration of 0.01 μM; 0.1 μM; 1.0 μM; and 10 μM in their respective wells. The cells were further incubated for 24 hrs before sodium glutamate in a solution of phosphate buffer was added. Cell viability was quantified 2 hrs later by the calcein AM assay (Green, P. S., E. J.Perez, T. Calloway and J. W. Simpkins: (2000), Journal of Neurocytology, Vol. 29, pp. 419-423) in a phosphate buffer solution.
ANOVA was used to determine the significance of differences among groups. Comparison between groups were done using the Tukey test. Ap<0.05 was considered significant.

The target in data set [2] is T1, ERα (Homo sapiens, UniProt P03372).
T1 sequence (P03372 1-595): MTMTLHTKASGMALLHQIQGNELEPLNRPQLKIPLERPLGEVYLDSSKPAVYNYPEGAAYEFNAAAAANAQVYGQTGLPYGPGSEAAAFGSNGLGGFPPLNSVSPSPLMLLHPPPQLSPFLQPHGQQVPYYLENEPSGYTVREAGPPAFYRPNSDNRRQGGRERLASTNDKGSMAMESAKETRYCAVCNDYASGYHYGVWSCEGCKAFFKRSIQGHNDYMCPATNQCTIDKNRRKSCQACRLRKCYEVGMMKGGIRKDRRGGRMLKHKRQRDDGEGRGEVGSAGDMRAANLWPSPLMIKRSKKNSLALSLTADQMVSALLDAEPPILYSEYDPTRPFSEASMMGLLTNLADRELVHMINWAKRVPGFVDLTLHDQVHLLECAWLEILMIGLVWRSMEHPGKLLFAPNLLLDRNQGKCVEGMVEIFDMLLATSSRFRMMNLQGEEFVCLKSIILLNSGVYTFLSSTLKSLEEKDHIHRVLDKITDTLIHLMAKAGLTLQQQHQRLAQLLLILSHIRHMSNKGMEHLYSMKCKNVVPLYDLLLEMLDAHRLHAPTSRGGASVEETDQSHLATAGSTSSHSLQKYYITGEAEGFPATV
As to the kind of experiment: Estrogen receptor binding, displacement of radiolabeled 17β-estradiol. The arrangement: dose or concentration left out as unconfirmed. Particulars: human cloned ERα, 17β-estradiol assigned 1; <0.01 = no evidence of binding.

Data set [3] concerns the target ERβ (Homo sapiens, UniProt Q92731). The data set is described as above. The arrangement: dose or concentration left out as unconfirmed. Particulars: human cloned ERβ, 17β-estradiol assigned 1; <0.01 = no evidence of binding.

Sequence of ERβ (Q92731 whole entry): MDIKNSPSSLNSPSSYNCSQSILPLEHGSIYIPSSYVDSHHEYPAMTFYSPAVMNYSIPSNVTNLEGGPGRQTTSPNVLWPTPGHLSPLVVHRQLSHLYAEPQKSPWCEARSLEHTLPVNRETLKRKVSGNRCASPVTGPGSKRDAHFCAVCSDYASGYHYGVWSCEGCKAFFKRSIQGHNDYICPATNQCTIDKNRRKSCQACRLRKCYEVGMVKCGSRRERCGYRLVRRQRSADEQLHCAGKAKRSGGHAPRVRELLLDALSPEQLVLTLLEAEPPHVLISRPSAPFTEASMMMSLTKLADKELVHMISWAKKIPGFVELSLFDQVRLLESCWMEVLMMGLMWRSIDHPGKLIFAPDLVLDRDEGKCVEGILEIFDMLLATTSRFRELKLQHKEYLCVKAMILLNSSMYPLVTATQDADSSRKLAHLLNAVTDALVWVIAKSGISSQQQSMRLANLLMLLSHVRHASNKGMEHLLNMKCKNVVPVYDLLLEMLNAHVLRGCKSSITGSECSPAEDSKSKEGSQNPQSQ

One may read the melting point as the temperature of the solid-liquid transition. For `CCCCOc1ccc2c(c1)CC[C@@H]1[C@@H]2CC[C@]2(C)[C@@H](O)CC[C@@H]12` [Compound 5b, 3-Butoxyestra-1,3,5(10)-trien-17β-ol], the melting point is 86 to 88 °C. For the same compound, the “cytoprotection (result in words)” value in data set [1] is “ineffective”. For `CCCCCCCCOc1ccc2c(c1)CC[C@@H]1[C@@H]2CC[C@]2(C)[C@@H](O)CC[C@@H]12` [Compound 5c, 3-Octyloxyestra-1,3,5(10)-trien-17β-ol], in that order: 64 to 66 °C and “ineffective”. In turn, `CCCCO[C@H]1CC[C@H]2[C@@H]3CCc4cc(O)ccc4[C@H]3CC[C@]12C` [Compound 4d, 17β-Butoxyestra-1,3,5(10)-trien-3-ol] registered a melting point of 77 to 81 °C. With `CCCCCCO[C@H]1CC[C@H]2[C@@H]3CCc4cc(O)ccc4[C@H]3CC[C@]12C` [Compound 4e, 17β-Hexyloxyestra-1,3,5(10)-trien-3-ol], in data set [1], the neuroprotection entry is given as “neuroprotective to a similar extent” and the “cytoprotection (result in words)” value is listed as “active”.

`CCO[C@H]1CC[C@H]2[C@@H]3CCc4cc(O)ccc4[C@H]3CC[C@]12C` [Compound 4b, 17β-Ethoxyestra-1,3,5(10)-trien-3-ol]: the “ERα BINDING (Relative to E2)” value in data set [2] was less than 0.01.

Take `C[C@]12CC[C@@H]3c4ccc(O)cc4CC[C@H]3[C@@H]1CC[C@@H]2O` [Compound 1, 17β-estradiol, reference compound]: in data set [1], the “activity compared with 4c and 4e” value is “less active then 4c and 4e”; the “cytoprotection (result in words)” value is recorded as “effective only at 10 μM”.

For `CCCCCCCCO[C@H]1CC[C@H]2[C@@H]3CCc4cc(O)ccc4[C@H]3CC[C@]12C` [Compound 4f, 17β-Octyloxyestra-1,3,5(10)-trien-3-ol], the “ERα BINDING (Relative to E2)” value in data set [2] is listed as less than 0.01. Also, the neuroprotection entry in data set [1] was “neuroprotective to a similar extent”. Besides, the “ERβ BINDING (Relative to E2)” value in data set [3] is less than 0.01. With `CO[C@H]1CC[C@H]2[C@@H]3CCc4cc(O)ccc4[C@H]3CC[C@]12C` [Compound 4a, 17β-Methoxyestra-1,3,5(10)-trien-3-ol], in data set [1], the “activity compared with 4c and 4e” value was “less active then 4c and 4e”. Besides, the “cytoprotection (result in words)” value in data set [1] is “inactive; also recorded: ineffective even at 10 μM”; in data set [1] (listed as 17β-methylestradiol), “effective only at 10 μM”. For the compound `CCCO[C@H]1CC[C@H]2[C@@H]3CCc4cc(O)ccc4[C@H]3CC[C@]12C` [Compound 4c, 17β-Propoxyestra-1,3,5(10)-trien-3-ol], the “ERα BINDING (Relative to E2)” value in data set [2] is less than 0.01.
